{"source": "patent US5716964A", "about": "“Tetrazolyl substituted imidazo[1,2-a]pyridinylalkyl compounds for treatment of neurotoxic injury” (G.D. Searle & Co., priority 1995, dated 1998)", "key": {"AMPA (QUIS) receptor": {"biological_target": "AMPA (QUIS) receptor", "experiment": "[3H]AMPA (QUIS) binding assay", "details": "[3H]AMPA 10 nM, 100 mM KSCN, SPM, 0-4 °C, 10 min; read-out: Ki IC50 Binding, AMPA", "procedure": "Synaptic plasma membranes (SPM) were prepared as previously described [Monahan, J. B. and Michel, J., \"Identification and Characterization of an N-methyl-D-aspartate-specific L[^3 H]glutamate Recognition Site in Synaptic Plasma Membranes, J. Neurochem., 48, 1699-1708 (1987)]. The SPM were stored at a concentration of 10-15 mg/ml in 0.32M sucrose, 0.5 mM EDTA, 1mM MgSO4, 5 mM Tris/SO4, pH 7.4, under liquid nitrogen. The identity and purity of the subcellular fractions were confirmed by both electron microscopy and marker enzymes. Protein concentrations were determined by using a modification of the method of Lowry [Ohnishi, S. T. and Barr, J. K., \"A Simplified Method of Quantitating Proteins Using the Biuret and Phenol Reagents\", Anal. Biochem., 86, 193-197 (1978)]. The SPM were treated identically for the [^3 H]AMPA (QUIS), [^3 H]kainate and sodium-dependent L-[^3 H]-glumatate binding assays. The SPM were thawed at room temperature, diluted twenty-fold with 50 mM Tris/acetate, pH 7.4, incubated at 37° C. for 30 minutes, and centrifuged at 100,000 g for 15 minutes. The dilution, incubation, and centrifugation was repeated a total of three times. Prior to use in the NMDA specific L-[^3 H]-glutamate binding assay the SPM were thawed, diluted twenty fold with 50 mM Tris/acetate, pH 7.4 containing 0.04% (v/v) Triton X-100, incubated for 30 minutes at 37° C. and centrifuged as described above. The Triton X-100 treated membranes were washed with 50 mM Tris/acetate, pH 7.4 and centrifuged at 100,000 g for 15 minutes a total of four times. […] The basic procedure for the receptor subclass binding assays was similar. This general method involved adding the radioligand (12.5 nM L-[^3 H]glutamate; 0.5 nM [^3 H]kainate or 10 nM [^3 H]AMPA) to the appropriate concentration of the test compound and initiating the assay by the addition of ice cold synaptic plasma membranes (0.2-0.45 mg). The binding assays were performed in 1.5 mL centrifuge tubes with the total volume adjusted to 1.0 mL. Additions of test compounds were made in 50 mM Tris/acetate, pH 7.4 and incubations were carried out at 0°-4° C. The incubation time for the NMDA and the AMPA binding assays was 10 minutes, for the kainate binding assay 60 minutes and for the sodium-dependent glutamate binding assay 15 minutes. The AMPA binding assay contained 100 mM KSCN and the sodium-dependent glutamate binding assay contained 150 mM sodium acetate in addition to the previously described reagents. To terminate the incubation, the samples were centrifuged for 15 minutes at 12,000 g and 4° C. in a Beckman Microfuge 12. The supernatant was aspirated and the pelleted membranes dissolved in Beckman BTS-450 tissue solubilizer for a minimum of 6 hours at room temperature. Beckman MP scintillation cocktail containing 7 mL/l acetic acid was then added and the samples counted on a Beckman LS 5800 or 3801 liquid scintillation counter with automatic corrections for quenching and counting efficiency. Nonspecific binding was defined as the residual binding in the presence of either excess L-glutamate (0.1-0.4 mM), kainate (0.01 mM), or NMDA (0.5 mM), and was 15-25% of the total binding in the NMDA binding assay, 19-27% in the AMPA binding assay, 20-30% in the kainate binding assay and 10-15% in the sodium-dependent binding assay. Radioligand binding to the synaptic plasma membranes was analyzed using Scatchard and Hill transformations and the Ki values of the compounds determined using logit-log transformations. Calculations and regression analysis were performed using templates developed for Lotus 1, 2, 3 as previously described [Pullan, L. M. \"Automated Radioligand Receptor Binding Analysis with Templates for Lotus\", Computer Appln. Biosci., 3, 131 (1987)]. Binding results are reported in Table I for example compounds of the invention."}, "[1]": {"tested_on": "Mongolian gerbils, CA1 region of the hippocampus", "experiment": "Forebrain ischemia assay (bilateral carotid occlusion, CA1 hippocampal neuron count)", "type": "in vivo, Mongolian gerbil", "details": "vs control, Mann-Whitney U test", "procedure": "This assay was used to determine the extent of protection afforded by compound of the invention to neural brain cells subjected to ischemic conditions. Male Mongolian gerbils, 50-70 gm, were used as subjects. Compound No. 7 (30 mg/kg) was injected i.p. 30 minutes prior to carotid occlusion into 6 gerbils […]. In preparation for surgical procedures, the animals were lightly anesthetized with methoxyflurane and placed upside down on a heated pad with their snout within a nosecone. A 70:30 mixture of nitrous oxide and oxygen containing 0.5% halothane was circulated through the nosecone to provide continuous anesthesia throughout the surgical procedure. A midline incision was made in the neck and the carotid arteries were exposed. A length of suture thread was placed under each carotid. […] Quantification of the resulting lesion is made by counting the pyramidal cell somata in a 0.5 mm length of CAl of the hippocampus on the section corresponding to P 1.7 mm in the gerbil brain atlas.\nNormal cell count in this region of the hippocampus in unoperated gerbils is 146±2. The effects of compound of Ex. #7 were assessed by comparing the number of neural cells found in the hippocampus of subjects treated with Ex. #7 compound with the cell number found in the appropriate control groups. […]"}, "[2]": {"tested_on": "mice (tonic hindlimb extensor seizures)", "experiment": "Anticonvulsant assay (electroconvulsive shock, tonic hindlimb extensor seizures)", "type": "in vivo, mouse (CD-1)", "details": "s.c., 30 min prior to ECS", "description": "(§1) 6, 351-353 (1977)]. […] The screens were then slowly inverted. […] The current was held constant at 15 mA. […] There were 10 mice in each treatment group."}, "mice (motor function)": {"tested_on": "mice (motor function)", "experiment": "Inverted screen test for motor impairment", "type": "in vivo, mouse (CD-1)", "description": "as §1"}, "[3]": {"tested_on": "cGMP levels in cerebellum", "experiment": "Effect on cGMP levels in cerebellum", "type": "in vivo, mouse (Swiss-Webster)", "details": "s.c.", "procedure": "The purpose of this assay is to determine the extent of in vivo bioavailability and the potency as an NMDA antagonist of compound of the invention as compared to known NMDA antagonists, namely, 3(2-carboxypiperizine-4-yl)propyl-1-phosphonic acid (CPP~ and cis-4-phosphonomethyl-2-piperidinecarboxylic acid (CGS 19755). Male Swiss-Webster mice (17-24 g were injected sub-cutaneously (s.c.) with compound of the invention and the known NMDA antagonist standards 30 minutes prior to sacrifice by focussed microwave irradiation. Groups consisted of 7-10 mice. Compounds of Ex. #7 was dissolved in isotonic saline and all compounds were administered in a volume of 0.2 ml per mouse. Cerebella samples were extracted in IN HCl. Hydrochloric acid in extracts of the cerebellum were freeze-dried for assay of cGMP with a commercial RIA kit (NEN). Statistics (Dunett's t-test) were performed as described previously [P. L. Wood et al., Neurochem, 19, 975-982 (1980)]. ED50 values were calculated from log-logit transformation of the dose-response data."}, "NMDA": {"tested_on": "NMDA", "details": "Murphy et al. 1987; cited from earlier work"}, "[4]": {"tested_on": "TCP (1-[1-(2-thienyl)cyclohexyl]piperidine) binding in rat brain synaptic membranes", "experiment": "TCP modulation assay ([3H]TCP binding)", "details": "printed in the column TCP Ki IC50", "procedure": "The effect on the TCP (1-[1-(2-thienyl)cyclohexyl]piperidine) binding was measured in rat brain synaptic membranes (SPM) prepared as previously described [J. B. Monahan & J. Michel; J. Neurochem. 48:1699-1708 (1987)]. Prior to their use in the binding assay, frozen SPM were thawed, diluted twenty fold with 50 mM Tris/acetate (pH 7.4 containing 0.04% (v/v) Triton X-100), incubated for 30 min. at 37° C. and centrifuged at 95,000×g for 15 min. The Triton X-100 treated SPM were washed with 5 mM Tris/HCl, pH 7.4 and centrifuged a total of six times. The compound of Example #7 was incubated at different concentrations with SPM (0.2-0.4 mg protein) and 2 nM tritiated TCP, in a total volume of 0.5 ml of 5 mM Tris/HCl buffer pH 7.4 at 25° C. for 60 min. The samples were filtered through glass fiber filters (Schleicher & Schuell #32) which have been pretreated with 0.05% (v/v) polyethylenimine, washed 4 times with 2 ml of ice-cold 5 mM Tris/HCl buffer, and then counted on a Beckman LS 5800 liquid scintillation counter with automatic corrections for quenching and counting efficiency. Inhibition of TCP binding was measured as a decrease in the binding in the presence of 0.05 mM L-glutamate. Non-specific binding was defined as the residual binding in the presence of […] phencyclidine."}}, "note": "Counter-ions that a name gives are not always drawn.", "data": [{"smiles": "O=C(O)c1cn2ccc(CP(=O)(O)O)cc2n1", "note": "[Example 18, 7-(phosphonomethyl)imidazo[1,2-a]pyridine-2-carboxylic acid]", "values": [{"measurement": "Ki", "setting": "AMPA (QUIS) receptor", "value": "> 300", "unit": "µM"}]}, {"smiles": "O=C(O)c1cn2c(CP(=O)(O)O)cccc2n1", "note": "[Example 7, 5-(phosphonomethyl)imidazo[1,2-a]pyridine-2-carboxylic acid]", "values": [{"measurement": "Ki", "setting": "AMPA (QUIS) receptor", "value": "> 300", "unit": "µM"}, {"measurement": "hippocampal cell loss after ischemia, in words", "setting": "[1]", "value": "significantly reduced"}, {"measurement": "protection against tonic hindlimb extensor seizures, in words", "setting": "[2]", "value": "protected against tonic hindlimb extensor seizures in a dose-dependent fashion"}, {"measurement": "Exhibiting Motor Impairments", "setting": "mice (motor function); 10 mg/kg s.c.", "value": "30 % of Mice"}, {"measurement": "Exhibiting Motor Impairments", "setting": "mice (motor function); 32 mg/kg s.c.", "value": "50 % of Mice"}, {"measurement": "Exhibiting Motor Impairments", "setting": "mice (motor function); 56 mg/kg s.c.", "value": "70 % of Mice"}, {"measurement": "Exhibiting Motor Impairments", "setting": "mice (motor function); 100 mg/kg s.c.", "value": "90 % of Mice"}, {"measurement": "impairment of motor function, in words", "setting": "mice (motor function); s.c., inverted screen", "value": "impaired motor function in a similar dose range"}, {"measurement": "brain bioavailability (decrease of cGMP in mouse cerebellum), in words", "setting": "[3]", "value": "brain bioavailable"}, {"measurement": "potency compared with CPP, in words", "setting": "[3]; decrease in cerebellar cGMP", "value": "in the same range of potency as the known NMDA antagonist CPP"}]}, {"smiles": "O=C(O)C1CN(CCCP(=O)(O)O)CCN1", "note": "(stereo not drawn) [CPP, 3-(2-carboxypiperazin-4-yl)propyl-1phosphonic acid]", "values": [{"measurement": "NMDA antagonism, in words", "setting": "NMDA", "value": "potent and selective NMDA antagonist"}]}, {"smiles": "O=C(O)c1cn2cc(CP(=O)(O)O)ccc2n1", "note": "[Example 13, 6-(phosphonomethyl)imidazo[1,2-a]pyridine-2-carboxylic acid]", "values": [{"measurement": "Ki", "setting": "AMPA (QUIS) receptor", "value": "> 300", "unit": "µM"}]}, {"smiles": "O=C(O)c1cn2c(C(O)P(=O)(O)O)cccc2n1", "note": "(stereo not drawn) [Example 57, 5-(hydroxyphosphonomethyl)imidazo[1,2-a]pyridine-2-carboxylic acid, monohydrochloride]", "values": [{"measurement": "Ki", "setting": "AMPA (QUIS) receptor", "value": "> 300", "unit": "µM"}, {"measurement": "TCP binding, result in words", "setting": "[4]", "value": "antag."}]}, {"smiles": "O=C(O)c1cn2c(CP(=O)(O)O)c(Cl)ccc2n1", "note": "[Example 30, 6-chloro-5-(phosphonomethyl)imidazo[1,2-a]pyridine-2-carboxylic acid]", "values": [{"measurement": "Ki", "setting": "AMPA (QUIS) receptor", "value": "> 300", "unit": "µM"}]}, {"smiles": "O=C(O)c1cn2cccc(CP(=O)(O)O)c2n1", "note": "[Example 23, 8-(phosphonomethyl)imidazo[1,2-a]pyridine-2-carboxylic acid]", "values": [{"measurement": "Ki", "setting": "AMPA (QUIS) receptor", "value": "> 300", "unit": "µM"}]}, {"smiles": "Cc1c(C(=O)O)nc2c(CP(=O)(O)O)cccn12", "note": "[Example 67, 3-methyl-8-(phosphonomethyl)imidazo[1,2-a]pyridine-2-carboxylic acid, monohydrochloride]", "values": [{"measurement": "Ki", "setting": "AMPA (QUIS) receptor", "value": "> 300", "unit": "µM"}]}]}
